Measurements from ChEMBL document CHEMBL1201862, “PubChem BioAssay data set” (2004).
The source made the active and inactive calls.

Experiments:
[1] = molecular target: T1, Zinc finger protein mex-5 (Caenorhabditis elegans, UniProt Q9XUB2); test: MEX-5/TCR-2 RNA interaction inhibitors, dose response, biochemical, C. elegans, fluorescence polarization (AID 1960)
T1 sequence (Q9XUB2 whole entry): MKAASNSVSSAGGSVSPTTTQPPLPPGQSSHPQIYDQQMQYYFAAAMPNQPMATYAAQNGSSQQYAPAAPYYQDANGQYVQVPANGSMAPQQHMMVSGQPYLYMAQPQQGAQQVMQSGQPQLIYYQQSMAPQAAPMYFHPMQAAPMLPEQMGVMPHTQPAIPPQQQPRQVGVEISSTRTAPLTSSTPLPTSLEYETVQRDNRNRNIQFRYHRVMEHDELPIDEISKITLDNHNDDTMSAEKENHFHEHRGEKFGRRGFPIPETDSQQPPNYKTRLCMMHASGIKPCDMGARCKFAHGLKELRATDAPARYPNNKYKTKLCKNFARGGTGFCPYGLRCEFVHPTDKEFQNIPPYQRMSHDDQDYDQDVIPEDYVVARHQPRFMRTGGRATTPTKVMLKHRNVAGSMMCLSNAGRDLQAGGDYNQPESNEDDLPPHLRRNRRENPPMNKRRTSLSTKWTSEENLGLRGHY

[2] = molecular target: T2, RNA-binding protein pos-1 (Caenorhabditis elegans, UniProt G5EF15); test: inhibitors of POS-1/mex-3 RNA binding, dose response, biochemical, fluorescence polarization (AID 1964);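 also: purified POS-1 fused to maltose binding protein made in E. coli; potency of compounds blocking POS-1 binding to fluorescent RNA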
T2 sequence (G5EF15 whole entry): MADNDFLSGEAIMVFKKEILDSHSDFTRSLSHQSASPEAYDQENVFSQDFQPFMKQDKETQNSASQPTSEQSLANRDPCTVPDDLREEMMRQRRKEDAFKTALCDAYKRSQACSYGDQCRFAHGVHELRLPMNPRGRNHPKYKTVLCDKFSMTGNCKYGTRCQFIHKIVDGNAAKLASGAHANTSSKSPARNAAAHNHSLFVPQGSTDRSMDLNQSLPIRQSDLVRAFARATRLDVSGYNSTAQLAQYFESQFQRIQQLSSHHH

Protein skinhead-1 = molecular target: T3, Protein skinhead-1 (Caenorhabditis elegans, UniProt P34707); type: functional
T3 sequence (P34707 whole entry): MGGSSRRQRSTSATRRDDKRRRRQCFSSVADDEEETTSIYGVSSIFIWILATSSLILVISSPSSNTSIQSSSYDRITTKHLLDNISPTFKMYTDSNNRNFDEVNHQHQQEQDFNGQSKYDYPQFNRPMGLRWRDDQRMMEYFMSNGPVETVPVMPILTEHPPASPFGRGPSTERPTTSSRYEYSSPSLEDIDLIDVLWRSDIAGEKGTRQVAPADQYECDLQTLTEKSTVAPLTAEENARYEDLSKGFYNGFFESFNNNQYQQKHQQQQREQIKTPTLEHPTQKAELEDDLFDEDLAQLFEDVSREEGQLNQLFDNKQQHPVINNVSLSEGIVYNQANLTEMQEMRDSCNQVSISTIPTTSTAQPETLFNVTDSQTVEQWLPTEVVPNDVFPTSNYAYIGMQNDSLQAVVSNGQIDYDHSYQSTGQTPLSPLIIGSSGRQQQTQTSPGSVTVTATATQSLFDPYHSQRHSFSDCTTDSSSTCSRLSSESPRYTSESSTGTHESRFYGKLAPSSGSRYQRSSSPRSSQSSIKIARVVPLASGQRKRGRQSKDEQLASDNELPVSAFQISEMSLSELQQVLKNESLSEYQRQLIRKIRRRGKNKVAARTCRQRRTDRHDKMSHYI

[3] = molecular target: T4, Heat shock factor protein 1 (Mus musculus, UniProt P38532); test: HSF1 potentiators in luciferase reporter cells, confirmation, cell-based, NIH3T3, luminescence, dose retest (AID 435004); type: functional;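 also: stress induced by proteasome inhibitor MG132 added 30 min after compound; luciferase reporter driven by HSF1 response element in NIH3T3 cells; actives raise luminescence as potentiators of the MG132 stress response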
T4 sequence (P38532 whole entry): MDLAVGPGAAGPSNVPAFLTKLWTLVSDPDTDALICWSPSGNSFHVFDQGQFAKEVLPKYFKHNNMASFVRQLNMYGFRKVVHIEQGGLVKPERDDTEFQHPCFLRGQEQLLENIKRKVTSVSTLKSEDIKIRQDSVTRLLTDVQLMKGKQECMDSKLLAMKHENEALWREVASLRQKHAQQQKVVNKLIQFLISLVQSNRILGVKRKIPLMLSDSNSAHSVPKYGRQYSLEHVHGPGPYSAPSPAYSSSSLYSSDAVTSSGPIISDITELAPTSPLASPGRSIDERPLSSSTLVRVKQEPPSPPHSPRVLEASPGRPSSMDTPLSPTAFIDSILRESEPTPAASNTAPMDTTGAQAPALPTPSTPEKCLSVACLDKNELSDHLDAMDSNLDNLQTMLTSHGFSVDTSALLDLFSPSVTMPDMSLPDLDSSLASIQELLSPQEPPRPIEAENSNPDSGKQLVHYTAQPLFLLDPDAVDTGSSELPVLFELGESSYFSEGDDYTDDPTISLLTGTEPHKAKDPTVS

Leucine aminopeptidase = molecular target: T5, Leucine aminopeptidase (Plasmodium falciparum 3D7, UniProt Q8IL11); test: P. falciparum M17LAP inhibitors, primary screen, biochemical, fluorogenic H-Leu-NHMec substrate, 1536-well (AID 1619); type: functional
T5 sequence (Q8IL11 whole entry): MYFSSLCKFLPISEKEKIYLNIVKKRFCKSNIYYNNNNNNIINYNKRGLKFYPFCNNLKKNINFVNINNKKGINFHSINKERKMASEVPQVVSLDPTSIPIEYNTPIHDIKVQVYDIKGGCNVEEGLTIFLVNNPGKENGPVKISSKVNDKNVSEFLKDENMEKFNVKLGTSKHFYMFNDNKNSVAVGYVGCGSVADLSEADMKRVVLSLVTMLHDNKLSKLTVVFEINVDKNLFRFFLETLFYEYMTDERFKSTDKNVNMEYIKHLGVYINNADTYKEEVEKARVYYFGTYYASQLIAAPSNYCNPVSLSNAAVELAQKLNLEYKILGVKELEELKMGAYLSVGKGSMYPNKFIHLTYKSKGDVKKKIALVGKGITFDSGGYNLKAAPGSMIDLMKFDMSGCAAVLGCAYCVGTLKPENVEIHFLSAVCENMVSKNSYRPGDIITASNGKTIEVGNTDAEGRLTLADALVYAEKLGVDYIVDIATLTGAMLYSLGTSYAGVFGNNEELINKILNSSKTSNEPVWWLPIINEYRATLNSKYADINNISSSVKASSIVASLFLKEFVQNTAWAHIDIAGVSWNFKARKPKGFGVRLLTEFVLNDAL

[4] = Luminescence Cell-Based Dose Retest to Confirm Inhibitors of Cancer Stem Cells. [Related pubchem assays (depositor defined):AID2717, AID2721]; type: functional; conditions: Homo sapiens
[5] = microbe, parasite or virus in culture; type: functional; conditions: Mycobacterium tuberculosis
Streptococcus = test: Group A Streptococcus viability loss, dose response, counter-screen for streptokinase expression inhibitor project, luminescence, BacTiterGlo (AID 1915); type: functional, organism-based;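 also: potency for reduction of bacterial viability or growth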
[6] = system: Streptococcus sp. 'group A'; test: growth inhibition of control SK(-) GAS strain, dose response, counter-screen for streptokinase expression inhibitor project, luminescence, kanamycin, BacTiterGlo, confirmation (AID 1900); type: functional, organism-based
Cytochrome P450 3A4 = Cytochrome P450 3A4 (Homo sapiens, UniProt P08684);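 also: CYP3A4 tested as one member of a cytochrome P450 panel screen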
Cytochrome P450 1A2 = molecular target: T6, Cytochrome P450 1A2 (Homo sapiens, UniProt P05177);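 also: PubChem cytochrome P450 panel assay, CYP1A2 panel member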
T6 sequence (P05177 whole entry): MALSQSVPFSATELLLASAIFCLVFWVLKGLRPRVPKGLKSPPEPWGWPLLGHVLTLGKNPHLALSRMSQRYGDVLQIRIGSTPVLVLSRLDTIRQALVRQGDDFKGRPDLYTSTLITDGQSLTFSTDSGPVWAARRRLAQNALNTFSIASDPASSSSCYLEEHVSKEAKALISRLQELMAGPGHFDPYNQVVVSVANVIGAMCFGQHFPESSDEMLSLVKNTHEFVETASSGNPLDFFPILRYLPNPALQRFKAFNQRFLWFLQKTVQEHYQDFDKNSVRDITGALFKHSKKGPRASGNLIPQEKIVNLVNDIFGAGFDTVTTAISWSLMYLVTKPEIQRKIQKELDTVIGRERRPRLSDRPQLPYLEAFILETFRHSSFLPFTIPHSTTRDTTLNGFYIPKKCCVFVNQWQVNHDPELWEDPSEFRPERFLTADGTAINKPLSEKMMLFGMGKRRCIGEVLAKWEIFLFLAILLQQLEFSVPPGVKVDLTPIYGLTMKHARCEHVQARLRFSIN

Cytochrome P450 2D6 = Cytochrome P450 2D6 (Homo sapiens, UniProt P10635);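 also: CYP2D6 member of a cytochrome P450 panel assay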
INS1 = test: beta cell apoptosis inhibitors, cytokine rescue, dose response, luminescence, retest (AID 449756); type: functional, cell-based; conditions: Rattus norvegicus;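 also: cell death triggered by IL-1 beta plus TNF-alpha plus IFN-gamma mixture; protective hits raise ATP signal compared with cytokine alone wells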
[7] = HEp-2 cell cytotoxicity, dose response, cytotoxicity control for RSV inhibitor project, HTS (AID 2410); type: functional; conditions: human respiratory syncytial virus

Chain of Cytochrome P450 3A4 (P08684 whole entry): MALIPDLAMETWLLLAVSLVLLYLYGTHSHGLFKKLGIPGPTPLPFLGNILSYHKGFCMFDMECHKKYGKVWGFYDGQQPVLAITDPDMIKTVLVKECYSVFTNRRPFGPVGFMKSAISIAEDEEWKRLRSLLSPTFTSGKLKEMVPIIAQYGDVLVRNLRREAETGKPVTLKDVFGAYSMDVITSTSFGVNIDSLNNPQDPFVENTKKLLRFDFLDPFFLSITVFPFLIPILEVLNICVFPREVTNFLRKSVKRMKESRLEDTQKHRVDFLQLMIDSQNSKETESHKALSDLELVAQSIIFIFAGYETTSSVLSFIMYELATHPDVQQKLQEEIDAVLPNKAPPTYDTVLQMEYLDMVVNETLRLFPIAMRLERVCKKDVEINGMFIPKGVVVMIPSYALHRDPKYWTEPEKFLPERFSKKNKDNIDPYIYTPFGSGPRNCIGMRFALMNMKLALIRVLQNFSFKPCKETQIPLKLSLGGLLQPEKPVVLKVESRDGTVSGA
Chain of Cytochrome P450 2D6 (P10635 whole entry): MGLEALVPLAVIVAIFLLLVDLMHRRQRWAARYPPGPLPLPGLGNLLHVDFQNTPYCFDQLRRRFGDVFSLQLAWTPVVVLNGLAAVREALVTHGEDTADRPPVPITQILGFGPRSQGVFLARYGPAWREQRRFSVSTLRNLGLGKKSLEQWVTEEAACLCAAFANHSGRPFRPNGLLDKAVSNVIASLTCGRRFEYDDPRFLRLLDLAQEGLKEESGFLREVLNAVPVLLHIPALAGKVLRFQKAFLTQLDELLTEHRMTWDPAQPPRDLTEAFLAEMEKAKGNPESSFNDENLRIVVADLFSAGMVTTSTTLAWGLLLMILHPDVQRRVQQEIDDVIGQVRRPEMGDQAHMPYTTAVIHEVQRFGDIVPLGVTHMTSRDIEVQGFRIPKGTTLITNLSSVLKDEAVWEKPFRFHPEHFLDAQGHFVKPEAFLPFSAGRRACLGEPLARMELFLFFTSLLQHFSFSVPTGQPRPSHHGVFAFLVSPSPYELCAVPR

Cc1cc(C(=O)O)ccc1-n1c(C)cc(/C=C2\SC(=O)NC2=O)c1C
EC50 [1]: > 300 µM (not active)
EC50 [2]: > 300 µM (not active)

COc1ccc2c(c1)c(C(O)CN1CCN(Cc3ccc4c(c3)OCO4)CC1)c(C)n2C (configuration not stated)
IC50 (Protein skinhead-1): > 100 µM (inactive)

O=C(C=Cc1cccs1)c1ccc(Cl)s1
IC50 (Protein skinhead-1): 19.7 µM (active)

CC1=C(C(=O)OCC2CCCO2)C(c2ccccc2OC(C)C)C2=C(O)CC(c3ccco3)CC2=N1 (configuration not stated)
IC50 (Protein skinhead-1): > 100 µM (inactive)

CC1=C(Sc2nc3ccccc3[nH]2)C(=O)NC(C)(C)C1
EC50 [3]: > 260 µM (inactive)

CCCc1cc(O)nc(SCC(=O)N(C)CC(=O)Nc2ccc(C)cc2)n1
IC50 (Leucine aminopeptidase): 9.77 µM (active)

CC1=NNC(=O)C1CCC(=O)N/N=C/C(Br)=C/c1ccccc1 (configuration not stated)
IC50 (Leucine aminopeptidase): 8 µM (active)

CN1CCN(c2ccc(NC(=O)COc3ccc(Cl)cc3Cl)cc2)CC1
AC50 [4]: 2.6 µM (active)

COc1ccc(NCc2n[nH]nc2-c2ccccc2)cc1Cl
CC50 [5]: > 40 µM (active)

O=C(CSc1nnc[nH]1)Nc1cccc2ccccc12
IC50 (Leucine aminopeptidase): 29.2 µM (active)

COc1ccc(-c2c(C)c3cc(O)ccc3oc2=O)cc1OC
EC50 [3]: > 260 µM (inactive)

Cc1ccc(C)c(NC(=O)CSc2nc(O)c3c(C(F)(F)F)cc(-c4cccs4)nc3n2)c1
EC50 (Streptococcus): 3.04 µM (active)
AC50 [4]: 2.92 µM (active)
EC50 [6]: 2.45 µM (active)

CC(C)CCNC(=O)c1ccc2c(SCC(=O)O)c3c(nc2c1)CCCC3
IC50 (Leucine aminopeptidase): 39.2 µM (active)

CCn1cc(C=C2C(=O)NC(=O)NC2=O)c2ccccc21
EC50 [1]: > 300 µM (inconclusive)
EC50 [2]: 28.7 µM (inconclusive)

O=C1NC(=O)N(CC2CCCO2)C(=O)/C1=C/c1c[nH]c2ccccc12 (configuration not stated)
EC50 [1]: > 300 µM (not active)
EC50 [2]: > 300 µM (not active)

Cc1cc(C)cc(NC(=O)CSc2ncc(S(=O)(=O)c3ccccc3)c(=O)[nH]2)c1
IC50 (Leucine aminopeptidase): 11.9 µM (active)

COc1ccc(-c2c[nH]nc2-c2ccc(OCC(=O)NN)cc2O)cc1OC
EC50 [1]: 2.07 µM (active)
EC50 [2]: > 300 µM (not active)

CCOCCCn1/c(=N/C(C)=O)c(C#N)cc2c(=O)n3ccccc3nc21
EC50 [1]: > 300 µM (not active)
EC50 [2]: > 300 µM (not active)

c1ccc(-c2csc(-c3ccncc3)n2)cc1
IC50 (Protein skinhead-1): 4.05 µM (active)

CCn1cc([N+](=O)[O-])c(C(=O)Nc2nc(-c3ccc(C)cc3)c(C)s2)n1
AC50 [4]: 4.24 µM (active)

Cc1cc(C)c(NC(=O)CN2C(=O)NC3(CCCCC3)C2=O)c(Cl)c1
IC50 (Leucine aminopeptidase): 29.3 µM (active)

CCCC(=O)Nc1ccc(C(=O)/C=C/c2ccc(SC)cc2)cc1
AC50 (Cytochrome P450 3A4): 3.16 µM (inconclusive)
AC50 (Cytochrome P450 1A2): 12.6 µM (inconclusive)
AC50 (Cytochrome P450 2D6): 7.94 µM (inconclusive)
CC50 [5]: > 40 µM (active)

CCOCCCNC(=O)C(c1ccc(Cl)cc1)N1CCC2(CC1)OCCO2 (configuration not stated)
IC50 (Protein skinhead-1): > 100 µM (inactive)

COc1ccc(N/C(=C(/C(Cl)=C(Cl)Cl)[N+](=O)[O-])n2nnc3ccccc32)cc1
EC50 [1]: 49.1 µM (inconclusive)
EC50 [2]: 88.5 µM (active)

COc1ccc(CCNC(=O)COc2nsnc2N2CCOCC2)cc1OC
IC50 (Protein skinhead-1): > 100 µM (inactive)

CC1(C)CC[C@]2(CO)[C@@H](O)C[C@]3(C)C(=CCC4[C@@]5(C)CC[C@H](O)C(C)(C)C5CC[C@]43C)[C@@H]2C1 (some centres not stated)
AC50 [4]: 3.14 µM (active)

Cc1ccc(-c2nc(-c3ccncc3)no2)c(C)c1
IC50 (Protein skinhead-1): 40.9 µM (active)

C=CCn1c(CNC(=O)c2ccco2)nnc1SCC(=O)Nc1cccc(Br)c1
IC50 (Leucine aminopeptidase): 90.1 µM (active)

CCCSc1nnc(N2C(=O)C(O)=C(C(=O)c3ccco3)C2c2ccccc2F)s1 (configuration not stated)
EC50 [1]: > 300 µM (not active)
EC50 [2]: > 300 µM (inconclusive)

CCn1c(C)c(C)c2cc(C(=O)N3CCc4ccccc4C3)ccc21
AC50 (INS1): 4.05 µM (active)
IC50 (Protein skinhead-1): > 100 µM (inactive)

Cc1ccccc1N/N=C/c1c(C)nc2ccccn12
CC50 [5]: > 40 µM (active)
CC50 [7]: 33.2 µM (active)

CCCCCCCCOc1ccc(C2OC34CCCCC3C(C#N)(C#N)C2(C#N)C(=N)O4)cc1 (configuration not stated)
EC50 [1]: 11.8 µM (active)
EC50 [2]: 13 µM (active)

Cc1cccc(NC(=O)c2ccc(COc3ccc(Cl)cc3Cl)o2)n1
AC50 [4]: 1.18 µM (active)

O=[N+]([O-])c1cccc(-c2csc(Nc3ccccc3)n2)c1
AC50 [4]: 4.04 µM (active)
IC50 (Protein skinhead-1): > 100 µM (inactive)

O=C(/C=C/c1ccc(OCCCF)cc1)Nc1ccnc(-c2cccnc2)n1
EC50 [1]: 20.6 µM (active)
EC50 [2]: 22.8 µM (active)
